According to the NIST ThermoML archive (doi:10.1021/je050065n):

How the values were obtained:
[1] = Crystal
[2] = molar heat capacity at constant pressure; conditions: 101.33 kPa
[3] = Molar enthalpy of transition or fusion; conditions: Crystal

CCCCCCCCCCCCC(=O)OCC [ethyl tridecanoate]
Conditions | Molar enthalpy of transition or fusion [kcal/mol] | Triple point temperature [K]
[1] | – | 272.4
[3] | 9.728 | –

[2]
Conditions | molar heat capacity at constant pressure [J/K/mol]
203.72 K, Crystal | 303.18
204.3 K, Crystal | 304.48
206.07 K, Crystal | 306.99
209.03 K, Crystal | 310.71
211.98 K, Crystal | 314.26
214.92 K, Crystal | 318.07
217.87 K, Crystal | 321.89
220.82 K, Crystal | 325.88
226.72 K, Crystal | 334
229.65 K, Crystal | 338.41
232.57 K, Crystal | 342.7
235.47 K, Crystal | 347.41
238.34 K, Crystal | 352.35
241.19 K, Crystal | 357.3
244.03 K, Crystal | 362.39
246.84 K, Crystal | 368.11
249.63 K, Crystal | 374.08
252.4 K, Crystal | 380.86
255.15 K, Crystal | 387.34
257.88 K, Crystal | 398.08
260.57 K, Crystal | 413.23
277.28 K, Liquid | 486.51
279.73 K, Liquid | 487.34
282.18 K, Liquid | 488.17
288.64 K, Liquid | 490.72
291.29 K, Liquid | 492.03
293.93 K, Liquid | 493
296.56 K, Liquid | 494.67
299.2 K, Liquid | 496
301.82 K, Liquid | 497.42
304.44 K, Liquid | 498.94
307.06 K, Liquid | 500.72
309.67 K, Liquid | 502.48
312.27 K, Liquid | 503.98
314.87 K, Liquid | 505.99
317.47 K, Liquid | 507.58
320.06 K, Liquid | 509.22
